Measurements published in ChEMBL document CHEMBL4828714, “Mutasynthesis of Antibacterial Halogenated Actinomycin Analogues” (J Nat Prod, 2021).
≈ marks a conversion by molar mass, not a printed value. Numbered stars: 1 amine (or outer) side, 2 acyl side, 3 side chain; on linkers, the order of the positions; unused ones are H or OH. Bridge positions count the residues as written; N and C are the ends. Square brackets hold non-standard residues; d marks the D form. Peptide text beside a SMILES is read from it. I, II: the chains in the order shown. Actinocin(1to9) = Cc1c2oc3c(C)ccc(C(=O)[*:2])c3nc-2c(C(=O)[*:1])c(N)c1=O; NMeV = CN[C@H](C(=O)O)C(C)C; Sar = CNCC(=O)O

Assays:
[1] = tested on: Staphylococcus aureus; assay: Antimicrobial activity against Staphylococcus aureus Sau 16162 assessed as inhibition of bacterial growth incubated for 16 to 18 hrs by broth micro dilution technique; type: functional; conditions: time 16-18 hrs
[2] = tested on: Staphylococcus aureus; assay: Antimicrobial activity against Staphylococcus aureus Sau 6917 assessed as inhibition of bacterial growth incubated for 16 to 18 hrs by broth micro dilution technique; type: functional; conditions: time 16-18 hrs
[3] = tested on: Staphylococcus aureus; assay: Antimicrobial activity against Staphylococcus aureus Sau 1862 assessed as inhibition of bacterial growth incubated for 16 to 18 hrs by broth micro dilution technique; type: functional; conditions: time 16-18 hrs
[4] = tested on: Staphylococcus aureus; assay: Antimicrobial activity against Staphylococcus aureus Sau 991 assessed as inhibition of bacterial growth incubated for 16 to 18 hrs by broth micro dilution technique; type: functional; conditions: time 16-18 hrs
[5] = tested on: Staphylococcus aureus; assay: Antimicrobial activity against Staphylococcus aureus Sau 718306 assessed as inhibition of bacterial growth incubated for 16 to 18 hrs by broth micro dilution technique; type: functional; conditions: time 16-18 hrs
[6] = tested on: Staphylococcus aureus; assay: Antimicrobial activity against Staphylococcus aureus Sau 745524 assessed as inhibition of bacterial growth incubated for 16 to 18 hrs by broth micro dilution technique; type: functional; conditions: time 16-18 hrs
[7] = tested on: Staphylococcus aureus; assay: Antimicrobial activity against Staphylococcus aureus CCAM 3090 assessed as inhibition of bacterial growth incubated for 16 to 18 hrs by broth micro dilution technique; type: functional; conditions: time 16-18 hrs
[8] = tested on: Staphylococcus aureus; assay: Antimicrobial activity against Staphylococcus aureus ATCC 29213 assessed as inhibition of bacterial growth incubated for 16 to 18 hrs by broth micro dilution technique; type: functional; conditions: time 16-18 hrs
[9] = tested on: Micrococcus luteus; assay: Antimicrobial activity against Micrococcus luteus ML01 assessed as inhibition of bacterial growth incubated for 16 to 18 hrs by broth micro dilution technique; type: functional; conditions: time 16-18 hrs
[10] = tested on: Enterococcus faecium; assay: Antimicrobial activity against Enterococcus faecium ATCC 35682 assessed as inhibition of bacterial growth incubated for 16 to 18 hrs by broth micro dilution technique; type: functional; conditions: time 16-18 hrs
[11] = tested on: Enterococcus faecalis; assay: Antimicrobial activity against Enterococcus faecalis ATCC 29212 assessed as inhibition of bacterial growth incubated for 16 to 18 hrs by broth micro dilution technique; type: functional; conditions: time 16-18 hrs
[12] = tested on: Bacillus thuringiensis; assay: Antimicrobial activity against Bacillus thuringiensis BT01 assessed as inhibition of bacterial growth incubated for 16 to 18 hrs by broth micro dilution technique; type: functional; conditions: time 16-18 hrs
[13] = tested on: Candida albicans; assay: Antimicrobial activity against Candida albicans assessed as inhibition of bacterial growth incubated for 16 to 18 hrs by broth micro dilution technique; type: functional; conditions: time 16-18 hrs
[14] = tested on: HepG2; assay: Cytotoxicity against human HepG2 cells assessed as growth inhibition incubated for 68 hrs by MTT assay; type: functional, cell-based; conditions: HepG2, 68 h
[15] = tested on: HeLa; assay: Cytotoxicity against human HeLa cells assessed as growth inhibition incubated for 68 hrs by MTT assay; type: functional, cell-based
[16] = tested on: HL-60; assay: Cytotoxicity against human HL-60 cells assessed as growth inhibition incubated for 68 hrs by MTT assay; type: functional, cell-based; conditions: HL-60, 68 h
[17] = tested on: RKO; assay: Cytotoxicity against human RKO cells assessed as growth inhibition incubated for 68 hrs by MTT assay; type: functional, cell-based
[18] = tested on: A549; assay: Cytotoxicity against human A549 cells assessed as growth inhibition incubated for 68 hrs by MTT assay; type: functional, cell-based; conditions: A549, 68 h
[19] = tested on: MCF7; assay: Cytotoxicity against human MCF7 cells assessed as growth inhibition incubated for 68 hrs by MTT assay; type: functional, cell-based; conditions: MCF7, 68 h
[20] = tested on: L02; assay: Cytotoxicity against human L02 cells assessed as growth inhibition incubated for 68 hrs by MTT assay; type: cell-based; conditions: L02, 68 h
[21] = tested on: BEAS-2B; assay: Cytotoxicity against human BEAS-2B cells assessed as growth inhibition incubated for 68 hrs by MTT assay; type: cell-based

Compound | MIC [1] [µg/mL] | MIC [2] [µg/mL] | MIC [3] [µg/mL] | MIC [4] [µg/mL] | MIC [5] [µg/mL] | MIC [6] [µg/mL] | MIC [7] [µg/mL] | MIC [8] [µg/mL] | MIC [9] [µg/mL] | MIC [10] [µg/mL] | MIC [11] [µg/mL] | MIC [12] [µg/mL] | MIC [13] [µg/mL] | IC50 [14] [nM] | IC50 [15] [nM] | IC50 [16] [nM] | IC50 [17] [nM] | IC50 [18] [nM] | IC50 [19] [nM] | IC50 [20] [nM] | other results
COc1c2oc3c(OC)ccc(C(=O)N[C@@H]4C(=O)N[C@H](C(C)C)C(=O)N5CCC[C@H]5C(=O)N(C)CC(=O)N(C)[C@@H](C(C)C)C(=O)O[C@@H]4C)c3nc-2c(C(=O)N[C@@H]2C(=O)N[C@H](C(C)C)C(=O)N3CCC[C@H]3C(=O)N(C)CC(=O)N(C)[C@@H](C(C)C)C(=O)O[C@@H]2C)c(N)c1=O | 8 (≈ 6.21 µM) | 2 (≈ 1.55 µM) | 2 (≈ 1.55 µM) | 2 (≈ 1.55 µM) | 2 (≈ 1.55 µM) | 2 (≈ 1.55 µM) | 2 (≈ 1.55 µM) | 2 (≈ 1.55 µM) | 0.5 (≈ 0.388 µM) | 8 (≈ 6.21 µM) | 8 (≈ 6.21 µM) | 4 (≈ 3.11 µM) | 16 (≈ 12.4 µM) | 4000 | 4300 | 200 | 1700 | 18500 | 4100 | 3900 | IC50 [21]: 2700 nM
Cc1c2oc3c(C)ccc(C(=O)N[C@@H]4C(=O)N[C@H](C(C)C)C(=O)N5CCC[C@H]5C(=O)N(C)CC(=O)N(C)[C@@H](C(C)C)C(=O)O[C@@H]4C)c3nc-2c(C(=O)N[C@@H]2C(=O)N[C@H](C(C)C)C(=O)N3CCC[C@H]3C(=O)N(C)CC(=O)N(C)[C@@H](C(C)C)C(=O)O[C@@H]2C)c(N)c1=O [DACTINOMYCIN] (I: T[dV]P[Sar][NMeV] / II: T[dV]P[Sar][NMeV]; ester I:1-I:C, II:1-II:C; linker I:N-II:N via Actinocin(1to9)) | 1 (≈ 0.797 µM) | 0.06 (≈ 0.0478 µM) | 0.06 (≈ 0.0478 µM) | 0.06 (≈ 0.0478 µM) | 0.06 (≈ 0.0478 µM) | 0.06 (≈ 0.0478 µM) | 0.06 (≈ 0.0478 µM) | 0.06 (≈ 0.0478 µM) | < 0.06 | 0.13 (≈ 0.104 µM) | < 0.06 | 0.06 (≈ 0.0478 µM) | < 0.06 | 10 | 120 | 20 | 30 | 3800 | 200 | 500 | IC50 [21]: 700 nM
